Data: the SangsterLogP compilation

Tests used:
[1] = method code SF-AS, from DOI: 10.1248/cpb.32.4994, PMID: 6534548
[2] = method code SF-AQ, from DOI: 10.1248/cpb.32.4994, PMID: 6534548
[3] = method code AS, from DOI: 10.1248/cpb.32.4994, PMID: 6534548

Compound	logP [1]	other results
CCNc1cccc(NC(=O)Cc2ccccc2)c1	2.59	–
CC(=O)c1ccc(NC(=O)Cc2ccccc2)cc1	2.75	–
O=C(Cc1ccccc1)Nc1cccc(Cl)c1	3.61	–
COc1ccc(NC(=O)Cc2ccccc2)cc1	2.49	–
O=C(Cc1ccccc1)Nc1cccc(I)c1	3.91	–
CS(=O)(=O)Oc1cccc(NC(=O)Cc2ccccc2)c1	2.32	–
O=C(Cc1ccccc1)Nc1ccc(F)cc1	2.86	–
O=C(Cc1ccccc1)Nc1ccc(Cl)cc1	3.54	–
CC(=O)Oc1cccc(NC(=O)Cc2ccccc2)c1	2.37	–
O=C(Cc1ccccc1)Nc1cccc(Br)c1	3.77	–
O=C(Cc1ccccc1)Nc1cccc(O)c1	2.22	–
CC(=O)N(c1ccccc1)c1ccc(C)cc1	3.05	–
O=C(Cc1ccccc1)Nc1cccc([N+](=O)[O-])c1	2.93	–
COc1cccc(NC(=O)Cc2ccccc2)c1	2.86	–
N#Cc1cccc(NC(=O)Cc2ccccc2)c1	2.75	–
CCc1cccc(N(C(C)=O)c2ccccc2)c1	–	logP [2]: 3.47
O=C(Cc1ccccc1)Nc1cccc(F)c1	3.1	–
Nc1cccc(NC(=O)Cc2ccccc2)c1	1.59	–
CC(=O)c1cccc(NC(=O)Cc2ccccc2)c1	2.62	–
O=C(Cc1ccccc1)Nc1ccc(Br)cc1	–	logP [3]: 3.7
O=C(Cc1ccccc1)Nc1ccc(O)cc1	1.82	–
Cc1cccc(NC(=O)Cc2ccccc2)c1	3.14	–
CNc1cccc(NC(=O)Cc2ccccc2)c1	2.31	–
